pIC50: −log10 of the molar value. Read-outs that look alike come from different tables or passages of the source.
Experiments:
human PRMT6 = human PRMT6 (Homo sapiens, UniProt Q96LA8); assay: biochemical
Text: General Materials. S-adenosylmethionine (SAM), S-adenosylhomocysteine (SAH), bicine, Tween20, dimethylsulfoxide (DMSO), bovine skin gelatin (BSG), sodium butyrate and Tris(2-carboxyethyl)phosphine hydrochloride solution (TCEP) were purchased from Sigma-Aldrich at the highest level of purity possible. ^3H-SAM was purchase from American Radiolabeled Chemicals with a specific activity of 80 Ci/mmol. 384-well streptavidin Flashplates were purchased from PerkinElmer.
Substrates. Peptide representative of human histone H4 residues 36-50 was synthesized with an N-terminal linker-affinity tag motif and a C-terminal amide cap by 21st Century Biochemicals. The peptide was purified by high-performance liquid chromatography (HPLC) to greater than 95% purity and confirmed by liquid chromatography mass spectrometry (LC-MS). The sequence was Biot-Ahx-[…]-amide and contained a monomethylated lysine at position 44 (SEQ ID NO.:5).
Molecular Biology: Full-length human PRMT6 (NM_018137.2) transcript clone was amplified from an HEK 293 cDNA library, incorporating a flanking 5′ sequence encoding a FLAG tag ([…]) (SEQ ID NO.:6) fused directly to Ser 2 of PRMT6 and a 3′ sequence encoding a hexa His sequence (HHHHHH) (SEQ ID NO.: 17) fused directly to Asp 375. The amplified gene was subcloned into pFastBacMam (Viva Biotech).
Protein Expression. Recombinant baculovirus were generated according to Bac-to-Bac kit instructions (Life Technologies). […] Infections were carried out at 37° C. for 48 hours, harvested by centrifugation, and stored at −80° C. for purification.
Protein Purification. […] Column was washed with 20 mM imidazole in the same buffer and Flag-PRMT6-His was eluted with 150 mM imidazole. Pooled fractions were dialysed against buffer Ni-A and further purified by anti-flag M2 affinity chromatography. Flag-PRMT6-His was eluted with 200 ug/ml FLAG peptide in the same buffer. Pooled fractions were dialysed in 20 mM Tris, 150 mM NaCl, 10% glycerol and 5 mM β-mercaptoethanol, pH 7.8. The purity of recovered protein was 95%.
General Procedure for PRMT6 Enzyme Assays on Peptide Substrates. The assays were all performed in a buffer consisting of 20 mM Bicine (pH=7.6), 1 mM TCEP, 0.005% BSG, and 0.002% Tween 20, prepared on the day of use. Compounds in 100% DMSO (1 ul) were spotted into a polypropylene 384-well V-bottom plates (Greiner) using a Platemate Plus outfitted with a 384-channel head (Thermo Scientific). DMSO (1 ul) was added to Columns 11, 12, 23, 24, rows A-H for the maximum signal control and 1 ul of SAH, a known product and inhibitor of PRMT6, was added to columns 11, 12, 23, 24, rows I-P for the minimum signal control. A cocktail (40 ul) containing the PRMT6 enzyme was added by Multidrop Combi (Thermo-Fisher). The compounds were allowed to incubate with PRMT6 for 30 min at room temperature, then a cocktail (10 ul) containing SAM and peptide was added to initiate the reaction (final volume=51 ul). The final concentrations of the components were as follows: PRMT6 was 1 nM, ^3H-SAM was 200 nM, non-radiolabeled SAM was 250 nM, peptide was 75 nM, SAH in the minimum signal control wells was 1 mM, and the DMSO concentration was 2%. The assays were stopped by the addition of non-radiolabeled SAM (10 ul) to a final concentration of 400 uM, which dilutes the ^3H-SAM to a level where its incorporation into the peptide substrate is no longer detectable. 50 ul of the reaction in the 384-well polypropylene plate was then transferred to a 384-well Flashplate and the biotinylated peptides were allowed to bind to the streptavidin surface for at least 1 hour before being washed once with 0.1% Tween20 in a Biotek EL×405 plate washer. The plates were then read in a PerkinElmer TopCount plate reader to measure the quantity of ^3H-labeled peptide bound to the Flashplate surface, measured as disintegrations per minute (dpm) or alternatively, referred to as counts per minute (cpm). […]

[1] = tested on: RKO cells, mono-methyl arginine; assay: RKO Methylation Assay (In Cell Western for mono-methyl arginine); assay type: cell-based; settings: Homo sapiens, 72 hours
Text: RKO adherent cells were purchased from ATCC (American Type Culture Collection), Manassas, Va., USA. DMEM/Glutamax medium, penicillin-streptomycin, heat inactivated fetal bovine serum, 0.05% trypsin and D-PBS were purchased from Life Technologies, Grand Island, N.Y., USA. Odyssey blocking buffer, 800CW goat anti-rabbit IgG (H+L) antibody, and Licor Odyssey infrared scanner were purchased from Licor Biosciences, Lincoln, Nebr., USA. Mono-methyl arginine antibody was purchased from Cell Signaling Technology, Danvers, Mass., USA. Methanol was purchased from VWR, Franklin, Mass., USA. 10% Tween 20 was purchased from KPL, Inc., Gaithersburg, Md., USA. DRAQ5 was purchased from Biostatus Limited, Leicestershire, UK.
RKO adherent cells were maintained in growth medium (DMEM/Glutamax medium supplemented with 10% v/v heat inactivated fetal bovine serum and 100 units/mL penicillin-streptomycin) and cultured at 37° C. under 5% CO2.
Cell Treatment, in Cell Western (ICW) for Detection of Mono-Methyl Arginine and DNA Content. […] Compound (100 nL) from a 96-well source plate was added directly to 384 well cell plate. Plates were incubated at 37° C., 5% CO2 for 72 hours. After three days of incubation, plates were brought to room temperature outside of the incubator for ten minutes and blotted on paper towels to remove cell media. 50 μL of ice cold 100% methanol was added directly to each well and incubated for 30 min at room temperature. After 30 min, plates were transferred to a Biotek EL406 plate washer and washed 2 times with 100 μL per well of wash buffer (1×PBS). Next 60 μL per well of Odyssey blocking buffer (Odyssey Buffer with 0.1% Tween 20 (v/v)) were added to each plate and incubated 1 hour at room temperature. Blocking buffer was removed and 20 μL per well of primary antibody was added (mono-methyl arginine diluted 1:200 in Odyssey buffer with 0.1% Tween 20 (v/v)) and plates were incubated overnight (16 hours) at 4° C. Plates were washed 5 times with 100 μL per well of wash buffer. […] The plates were washed 5 times with 100 μL per well wash buffer then 2 times with 100 μL per well of water. Plates were allowed to dry at room temperature then imaged on the Licor Odyssey machine which measures integrated intensity at 700 nm and 800 nm wavelengths. Both 700 and 800 channels were scanned.
Calculations: First, the ratio for each well was determined by:
Each plate included fourteen control wells of DMSO only treatment (minimum activation) as well as fourteen control wells for maximum activation treated with 20 μM of a reference compound. The average of the ratio values for each control type was calculated and used to determine the percent activation for each test well in the plate. Reference compound was serially diluted three-fold in DMSO for a total of nine test concentrations, beginning at 20 μM. Percent activation was determined and EC30 curves were generated using triplicate wells per concentration of compound.

human PRMT6, sequence (Q96LA8 with tags, fused parts or gaps): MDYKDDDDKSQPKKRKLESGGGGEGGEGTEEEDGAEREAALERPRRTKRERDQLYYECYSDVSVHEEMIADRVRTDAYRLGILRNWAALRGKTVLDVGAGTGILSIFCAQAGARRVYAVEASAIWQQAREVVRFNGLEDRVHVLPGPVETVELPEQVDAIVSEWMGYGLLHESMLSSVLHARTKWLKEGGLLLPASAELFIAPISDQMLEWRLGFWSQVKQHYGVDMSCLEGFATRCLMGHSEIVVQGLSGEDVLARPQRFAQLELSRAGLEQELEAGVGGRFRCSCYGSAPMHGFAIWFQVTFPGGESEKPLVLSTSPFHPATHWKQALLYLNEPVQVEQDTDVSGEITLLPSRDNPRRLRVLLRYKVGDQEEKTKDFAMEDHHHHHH

CNCCN(C)Cc1n[nH]c2ccc(OC(C)C(C)C)cc12 (stereo not shown) [Compound 4] showed a pIC50 (human PRMT6; biochemical evaluation, peptide substrate, read-out: PRMT6 IC50) greater than 7.00, a pIC50 (human PRMT6; single experiment or average of multiple experiments, read-out: PRMT6 biochemical evaluation (numerical)) of 7.44 and an EC30 ([1]; In Cell Western EC30, RKO cells, single experiment or average of multiple experiments, read-out: RGG ICW) of 1680 nM. It also gave an EC30 ([1]; In Cell Western, RKO cells, read-out: RGG ICW EC30) of less than 3000 nM.
